Measurements: patent US5420289A, “Substituted indole-, indene-, pyranoindole- and tetrahydrocarbazole-alkanoic acid derivatives as inhibitors of PLA2 and lipoxygenase” (American Home Products Corporation, priority 1993, dated 1995)
Structures can show the parent of a compound that is named as a salt.

Legend:
[1] = test system: cyclooxygenase (PGE2 synthesis) in rat polymorphonuclear leukocytes (PMN); assay: inhibition of PGE2 synthesis (cyclooxygenase) by rat glycogen-elicited PMN (Example 73); assay type: cell-based, rat (female Wistar); details: Leukocyte, * (negative) denotes a potentiation; for inhibition at 10000 µM: at 10 mM, read-out: % Inhibition (PGE2 synthesis); for inhibition at 500 µM: at 0.5 mM
Procedure: (§1) Rat polymorphonuclear leukocytes (PMNs) are obtained from female Wistar rats (150-200 g) which receive an injection of 6% glycogen (10 ml i.p.). Rats are sacrificed 18-24 hours post injection by CO2 asphyxiation and the elicited cells are harvested by peritoneal lavage using physiological saline (0.9% NaC1). The exudate is centrifuged at 400 ×g for 10 minutes. The supernatant fluid is discarded and the cell pellet is resuspended to a concentration of 2.0×10^7 cells/mL in HBSS containing Ca^++ and Mg^++ and 10 mM L-cysteine.
(§2) To 1 mL aliquots of cell suspension, test drugs or vehicle are added, then preincubated at 37° C. for 10 minutes. A23187 (1 mM), [^3 H]-AA (3.0 mCi/mL) and unlabeled AA (1 mM) are then added and the samples are further incubated for 10 minutes. The reaction is terminated by centrifugation and pelleting cells. Supernatants are then analyzed by HPLC analysis on a 15 cm×4.6 mm ID supelcosil LC-18 (Supelco)(3M) column, using a two solvent system at a flow rate of 1.4 mL total flow as follows:
In this assay, the procedure of Example 72 is carried out as described. However, in order to determine cyclooxygenase activity, the samples are cochromatographed with authentic reference [^3 H]-PGE2.
The results be calculated as in Example 72 and presented below: […]

[2] = test system: synthesis of LTB4 by rat glycogen-elicited polymorphonuclear leukocytes (PMN); assay: inhibition of LTB4 synthesis by rat glycogen-elicited PMN (Example 72); assay type: cell-based, rat (female Wistar); details: Leukocyte; for inhibition at 10000 µM: at 10 mM, negative number denotes potentiation; for inhibition at 500 µM: at 0.5 mM
Text: This is especially true with respect to 5,12-diHETE, which is also denoted as LTB4 lsee Ford-Hitchinson, J. Roy. Soc. Med., 74, 831 (1981)]. Compounds which inhibit the PLA2 -mediated release of arachidonic acid thereby effectively prevent the oxidation of arachidonic acid to the various leukotriene products via the lipoxygenase cascade. Accordingly, the specificity of action of PLA2 inhibitors can be determined by the activity of test compounds in this assay, which measures the ability of compounds to inhibit the synthesis of LTB4 by rat glycogen-elicited polymorphonuclear leukocytes (PMN) in the presence of exogenous substrate.
The assay is carded out as follows:
as §1, §2
Gradient: (system is equilibrated with Solvent A)
Percent solvent changes are accomplished in a linear fashion.
Injections: […] of each supernatant is injected directly onto column and ^3 H arachidonic acid metabolites are monitored using an on-line radioactivity detector (Ramona, IN/U S, Fairfield, NJ).
Standards: 10^4 -2.0×10^4 dpm of eicosanoids of interest are injected in […] EtOH cocktail.
Co-chromatography with standard [^3 H] leukotriene B4 (LTB4) in medium of stimulated PMN exposed to drug is compared to that found in medium of stimulated cells exposed to no drug, generating percent inhibition.
Results are expressed as percent inhibition at a given compound dose or as an IC50 value.

[3] = target: T1, LTD4 (isolated guinea pig trachea) (Cavia porcellus, UniProt Q2NNR5); assay: in vitro isolated guinea pig trachea assay, LTD4 antagonism (Example 77); parameters: from tissue; host or cells: isolated trachea rings of male Hartley guinea pigs; species or system guinea pig (male Hartley); details: Table VII; 1 × 10^-5 M
T1 sequence (Q2NNR5 1-340): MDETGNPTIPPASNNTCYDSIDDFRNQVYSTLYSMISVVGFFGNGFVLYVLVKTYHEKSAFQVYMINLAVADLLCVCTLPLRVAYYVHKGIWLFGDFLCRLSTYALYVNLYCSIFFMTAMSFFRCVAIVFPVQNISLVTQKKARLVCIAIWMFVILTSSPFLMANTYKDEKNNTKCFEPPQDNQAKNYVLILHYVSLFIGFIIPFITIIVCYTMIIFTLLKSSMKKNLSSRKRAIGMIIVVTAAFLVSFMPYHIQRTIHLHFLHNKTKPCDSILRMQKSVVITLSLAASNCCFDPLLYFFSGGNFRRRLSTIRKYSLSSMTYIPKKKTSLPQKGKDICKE
Procedure: The LTD4 antagonist activity of the compounds of the invention is assessed in the in vitro isolated guinea pig trachea assay. This assay is carried out as follows: Male Hartley guinea pigs (350-400 g) are euthanized by a blow to the head, the neck is opened and the trachea removed. The trachea is maintained in aerated physiological salt solution, cleared of connective tissue and fat and cut into tings approximately 2 nxn in width (usually containing two cartilaginous segments per ting). Two pieces of silk suture are then passed through the lumen of the tracheal ring and are tied around the cartilage, one on each side of the trachealis muscle. The tracheal ting is suspended between a glass hook and a force […] transducer in a 10 mL organ bath for measurement of isometric tension. […] The tracheal […] maintained at 2 g resting tension and equilibrated for 45 minutes (with frequent washing and readjustment of resting tension). The tracheal rings are first contracted by the addition of carbachol (3×10^-6 M), to determine tissue responsiveness and establish a reference contraction. On attainment of a stable level of contraction (approximately 30 minutes), the tissues are washed several times until baseline tension has been restored and then re-equilibrated for 30 minutes. The tissues are then incubated for 45 minutes with a test antagonist (either 1×10^-6 M or 1×10^-5 M) or […] of an appropriate solvent control (control, non-treated). One tissue in each group serves as the control. Twenty minutes prior to the construction of the LTD4 cumulative concentration-response curve, L-[…]×10^-2 M final bath concentration) is added to inhibit bioconversion of LTD4 to LTE4. Only one LTD4 concentration-response curve is constructed in each tissue. All responses to LTD4 in an individual tissue are measured as a percentage of the reference contraction of that tissue to carbachol. LTD4 antagonist activity is determined by comparison of the concentration response curves of LTD4 in the presence and absence of antagonist. Assessment of the relative rightward shift of the antagonist treated curve relative to the solvent (control) treated tissue is calculated as a concentration ratio (Eq. A) and used in subsequent calculations to derive an antagonist pKB value (Eqs B and C). […] If a compound is found to be active and/or depress the maximal response to LTD4, then a range of concentrations of the test compound should be used generating multiple concentration ratios which would then be used to perform a Schild analysis, and determination of a pA2 value where appropriate.

carrageenan paw edema = assay: rat carrageenan paw edema assay (Example 78); assay type: in vivo, rat (male Sprague-Dawley)
Procedure: The compounds of the invention are further tested in the rat carrageenan paw edema assay to determine their ability to inhibit the acute inflammatory response.
This assay is carried out as follows: 140-180 g Male Sprague-Dawley rats, in groups of 6 animals are injected subcutaneously in the right paw with 0.1 mL of 1% carrageenan at zero time. Mercury plethysmographic readings (mL) of the paw are made at zero time and 3 hours later. Test compounds are suspended or dissolved in 0.5% methylcellulose and given perorally 1 hour prior to carrageenan administration.
The increase in paw volume (edema in mL) produced by the carrageenan is measured. Paw edema is calculated (3 hour volume minus zero time volume), and percent inhibition of edema is determined. Unpaired Student's t-test is used to determine statistical significance.

human platelet PLA2 = target: T2, human platelet PLA2 (Homo sapiens, UniProt P14555); assay: in vitro isolated phospholipase A2 assay, human platelet PLA2 (Example 74); assay type: biochemical; parameters: dose or concentration left out as unconfirmed; details: read-out: % Inhibition, HP (human platelet)
T2 construct: Semi-purified human platelet acid extract PLA2; from tissue; host or cells: human platelets (semi-purified acid extract)
T2 sequence (P14555 21-144): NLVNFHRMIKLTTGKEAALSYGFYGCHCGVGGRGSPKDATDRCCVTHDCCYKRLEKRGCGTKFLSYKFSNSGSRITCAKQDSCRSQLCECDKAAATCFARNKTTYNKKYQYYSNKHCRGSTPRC
Outline: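 Semi-purified human platelet acid-extract PLA2 (pH 4.5 acetate) was incubated with ³H-arachidonate-labelled E. coli substrate for 10 min at 37° C. The reaction was terminated with tetrahydrofuran. Released arachidonic acid was isolated on NH2 columns and quantified by β-counting against total counts.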

[4] = test system: paw edema induced by PLA2 from the diamond back cotton mouth snake (A. piscivorus piscivorus); assay: in vivo PLA2 murine paw edema assay (Example 75); parameters: species or system mouse (male CD-1); details: 30 mg/kg i.p.; 30 min
[5] = target: T3, human synovial fluid PLA2 (Homo sapiens, UniProt P14555); assay: in vitro isolated phospholipase A2 assay, human synovial fluid PLA2 (Example 74); assay type: biochemical; parameters: inhibition / % Inhibition, HSF (human synovial fluid): dose or concentration left out as unconfirmed; details: for inhibition: read-out: % Inhibition, HSF (human synovial fluid)
T3 sequence (P14555 21-144): T2 sequence (P14555 21-144)
Outline: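 Human synovial fluid PLA2 (purified) acts on ³H-arachidonate-labelled E. coli substrate, 10 minutes at 37° C with shaking; stopped with tetrahydrofuran. Released arachidonic acid is isolated on NH2 columns, eluted with tetrahydrofuran/2% acetic acid and quantitated by β-counting against a total-counts sample.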

[6] = test system: 5-lipoxygenase in human whole blood; assay: inhibition of 5-lipoxygenase in human whole blood (Example 79); assay type: cell-based; details: for % Inhibition of LTB4: 25 μM
Outline: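 Donor whole blood pre-incubated 10 min at 37° C with compound (0.1% DMSO final), then stimulated with […] calcium ionophore A23187 for 20 min at 37° C; stopped on ice with EGTA. Plasma LTB4, TxB2 and PGE2 measured by RIA or ELISA as ng/10^6 neutrophils; effects expressed as percent change from control.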

## CCC1(CC(=O)O)OCCc2c1[nH]c1ccc(OCc3ccc4ccccc4n3)cc21 (stereo not drawn) [Example 9, 1-Ethyl-1,3,4,9-tetrahydro-6-(quinolinylmethoxy)pyrano[3,4-b]indole-1-acetic acid]
[1]
  inhibition at 10000 µM: 75%
[2]
  inhibition at 10000 µM: 96%
[3]
  Kb: 550 nM

## CC1(C)OCCc2c1[nH]c1ccc(OCc3ccc4ccccc4n3)cc21 [Example 14, 1,3,4,9-Tetrahydro-1,1-dimethyl-6-(2-quinolinylmethoxy)pyrano[3,4-b]indole]
[1]
  inhibition at 10000 µM: -48%
[2]
  inhibition at 10000 µM: 91%
Carrageenan paw edema; 50 mg/kg peroral, 3 hours after carrageenan
  % Inhibition 50 mg/kg (peroral): 27%

## Cc1c(CC(=O)O)c2cc(OCc3ccc4ccccc4n3)ccc2n1Cc1ccc2ccccc2n1 [Example 18, 2-Methyl-5-(2-quinolinylmethoxy)-1,2-(quinolinylmethy)-1H-indole-3-acetic acid]
[1]
  inhibition at 500 µM: -31%
[2]
  inhibition at 500 µM: 88%
Human platelet PLA2
  inhibition: 47%
[3]
  Kb: 1410 nM
[4]
  % Change in Edema: -19%
[5]; Table III, read-out: IC50 HSF (human synovial fluid)
  IC50: 27000 nM
[5]
  inhibition: 30%

## Cc1c(CC(=O)O)c2cc(OCc3ccc4ccccc4n3)ccc2n1Cc1ccc(Cl)cc1 [Example 43, 1-[(4-Chlorophenyl)methyl]-2-methyl-5-(2-quinolinylmethoxy)-1H-indole-acetic acid tromethamine salt hemi-ethanolate]
[3]
  Kb: 1000 nM

## CCOC(=O)Cc1c(C)n(Cc2ccccc2)c2ccc(OCc3nc4ccccc4s3)cc12 [Example 50, 5-(2-Benzothiazolylmethoxy)-1-(phenylmethyl)-2-methyl-1H-indole-3-acetic acid ethyl ester]
[6]
  % Inhibition of LTB4: 95%
[3]
  Kb: 3980 nM
[5]
  inhibition: 2%

## CCN(CC)C(=O)Cc1c(C)n(Cc2ccccc2)c2ccc(OCc3nc4ccccc4s3)cc12 [Example 52, 5-(2-Benzothiazolylmethoxy)-N,N-diethyl-1-(phenylmethyl)-2-methyl-1H-indole-3-acetamide]
[6]
  % Inhibition of LTB4: 68%
[6]; human whole blood, read-out: IC50 (inhibition of LTB4)
  IC50: 19900 nM
[3]
  Kb: 2510 nM
[5]
  inhibition: 12%

## CCc1cccc2c3c([nH]c12)C(CC)(CC(=O)O)OCC3 (stereo not drawn) [etodolac, reference compound]
[1]
  inhibition at 500 µM: 100%
[2]
  inhibition at 500 µM: 21%
Carrageenan paw edema; Rattus norvegicus, 3 h, oral, Table VIII
  ED50: 23 mg/kg
